From patent US8436040B2, “Method of treating conditions involving PPAR-receptors with indole compounds” (Laboratoires Fournier S.A., priority 2005, dated 2013)

Legend:
[1] = tested on: db/db mice; assay: db/db mouse model: serum glucose, triglyceride and cholesterol levels; format: in vivo; settings: serum 4 hours after last gavage
Method: The test protocol is as follows:
Homozygous C57BL/Ks-db male mice (db/db mice), 11 to 13 weeks old at the start of the studies, are divided up into groups of 9-10 animals. The products are administered orally once a day for 5 days. One group of mice receives the vehicle only (0.5 or 1% methyl cellulose solution). A blood sample is taken from the retro-orbital sinus before treatment and 4 hours after the last gavage.
After centrifugation, the serum is collected and the cholesterol, triglyceride and glucose levels are measured using a multiparameter analyzer with commercial kits.
The results are expressed in % variation on the final day relative to the control group.

[2] = tested on: C2C12 cells; assay: β-oxidation of 1-C14 oleate on C2C12 cells differentiated in myotubes; format: cell-based, murine; settings: 100 μM, 48 hours incubation
Method: A second series of tests was performed with the compounds according to the invention in order to confirm the activity deduced from their affinity for the aforementioned receptors. This test consists in measuring the β-oxidation on HuH7 cells of human hepatic origin and C2C12 cells of murine muscular origin after differentiation in myotubes.
The cells are inoculated into Petri dishes containing a central well. The products are added to the culture medium and incubated for 48 hours at different concentrations. After incubation for 22 hours, C14-radiolabeled oleate (1-C14 oleate) is added to the culture medium. The β-oxidation reaction is stopped 2 hours later by the addition of 40% perchloric acid.
The CO2 liberated during the oxidation of the oleate is trapped with KOH solution and then counted.
Each test is performed three times.
The results are expressed in % variation relative to the control dishes (dishes without compounds).

[3] = 30 mg/kg orally once a day for 5 days
[4] = 100 mg/kg orally once a day for 5 days
[5] = 3 mg/kg orally once a day for 5 days

Structure (SMILES)	Cholesterol, % variation on the final day relative to the control group [1, 3]	Glucose, % variation on the final day relative to the control group [1, 3] [%]	Triglycerides, % variation on the final day relative to the control group [1, 3] [%]	also measured
O=C(O)CCc1cc2cc(Cl)ccc2n1S(=O)(=O)c1ccccc1 [Example 2, 5-Chloro-1-(phenylsulfonyl)-1H-indole-2-propanoic acid]	+30%	0	−7	
O=C(O)CCc1cc2cc(C(F)(F)F)ccc2n1S(=O)(=O)c1ccccc1 [Example 4, 1-(Phenylsulfonyl)-5-(trifluoromethyl)-1H-indole-2-propanoic acid]	+41%	−30	−12	β-oxidation, % variation relative to the control dishes [2]: 82%
O=C(O)CCc1cc2cc(Cl)ccc2n1S(=O)(=O)c1ccc2ncsc2c1 [Example 155, 1-[(6-Benzothiazolyl)sulfonyl]-5-chloro-1H-indole-2-propanoic acid]	+38%	−35	−41	
O=C(O)CCCc1cc2cc(Cl)ccc2n1S(=O)(=O)c1ccc2c(c1)OCO2 [Example 163, 1-[(1,3-Benzodioxol-5-yl)sulfonyl]-5-chloro-1H-indole-2-butanoic acid]	−15%	−38	−35	
CC(OCc1cc2cc(Cl)ccc2n1S(=O)(=O)c1ccccc1)C(=O)O (stereo not shown) [Example 202, 2-[[5-Chloro-1-(phenylsulfonyl)-1H-indol-2-yl]methoxy]propanoic acid]	+25%	−52	−48	
CC(C)OC(=O)C(C)(C)Oc1ccc(C(=O)c2ccc(Cl)cc2)cc1 [Fenofibrate]				Cholesterol, % variation on the final day relative to the control group [1, 4]: +32%; Glucose, % variation on the final day relative to the control group [1, 4]: −9%; Triglycerides, % variation on the final day relative to the control group [1, 4]: −7%
CN(CCOc1ccc(CC2SC(=O)NC2=O)cc1)c1ccccn1 (stereo not shown) [Rosiglitazone, rosiglitazone, reference compound]				Cholesterol, % variation on the final day relative to the control group [1, 5]: −30%; Glucose, % variation on the final day relative to the control group [1, 5]: −41%; Triglycerides, % variation on the final day relative to the control group [1, 5]: −52%
